Converted amounts (≈) assume the structure as drawn. Positions of bridges follow the written chain, without caps; N, C: chain ends. Non-standard residues stand in square brackets, D forms with d. Residues, ends and D or L forms follow the SMILES beside them. *: point of attachment. Phenylacetyl(4-Cl) = O=C(Cc1ccc(Cl)cc1)*; Benzoyl(4-Et) = CCc1ccc(C(=O)*)cc1; X13 = O=C(Cc1ccc(Cl)cc1Cl)*; X22 = CC(C)c1ccc(C(=O)*)cc1; X14 = Cc1ccc(C(=O)*)cc1C; Dab = NCC[C@H](N)C(=O)O; Abu = CC[C@H](N)C(=O)O; Dap = NC[C@H](N)C(=O)O
How the values were obtained:
Acinetobacter baumannii = test system: Acinetobacter baumannii
Summary of the method: (§1)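 MICs were determined for the lipopeptides, tested as trifluoroacetic acid salts, by broth microdilution in cation-adjusted Mueller-Hinton broth following CLSI standards (M100-S18). Polymyxin B sulphate served as the control.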

Enterobacter cloacae = test system: Enterobacter cloacae
Summary of the method: as §1

Klebsiella pneumoniae = test system: Klebsiella pneumoniae
Summary of the method: as §1

Pseudomonas aeruginosa = test system: Pseudomonas aeruginosa
Summary of the method: as §1

P. aeruginosa ATCC 27853 = experiment: In vivo efficacy in mouse blood infection model (neutropenic Swiss mice); details: compound, free base 4 mg/kg intravenously 2 h after inoculation, blood at 4 h
Protocol: P. aeruginosa ATCC 27853, A. baumannii ATCC 19606 and K. pneumoniae FADDI-KP032 were subcultured on nutrient agar plates. One colony of each bacterial strain was dispersed in 10-mL CAMHB and incubated overnight. On day 2, an aliquot (0.2 mL) of each overnight culture suspension was dispersed in 20-mL CAMHB and incubated for 1.5-2.5 h for production of early log-phase growth bacterial culture. The bacteria in the early log-phase growth suspension were concentrated by centrifugation (3,220 g for 10 min) and re-suspended in sterile 0.9% saline for inoculation into mice. The bacterial cell concentration (colony forming unit [CFU]/mL) in saline was estimated by determining the optical density (OD) of the suspension at 600 nm, and confirmed by plating the suspension on nutrient agar plates. Swiss mice (22 to 28 g) were rendered neutropenic by injecting two doses of cyclophosphamide intraperitoneally, −4 day (150 mg/kg) and −1 day (100 mg/kg) prior to inoculation. Bloodstream infection was established by injecting intravenously 50 μL of early log-phase bacterial suspension (10^8-10^9 CFU/mL). The exact injection volume for each bacterial suspension was calculated based upon the OD value of the bacterial suspension and the desired inoculum for each isolate.
Solutions for administration of colistin, polymyxin B or the compounds were prepared at a concentration of 1 mg (free base) per mL in sterile 0.9% saline. At 2 h after inoculation, a mouse in the treatment groups was injected intravenously with one of the above solutions at 4 μL/g body weight (BW) (i.e. free base 4 mg/kg BW), while the same volume of saline was injected into the control mice. At 0 h or at 4 h after the administration of antibacterial drug or saline (control), animals were euthanised by inhalation of overdose isoflurane. The skin on the chest and fore-paws of each animal was thoroughly cleansed with 70% ethanol and Betadine®. The blood was collected via cardiac puncture using a 1-mL syringe rinsed with heparin (5,000 IU/mL), diluted serially in sterile 0.9% saline and plated on nutrient agar plates using a spiral plater.
The agar plates were incubated at 37° C. overnight. The bacterial colonies on the plate were counted and CFU/mL of the blood was calculated. The log10 CFU/mL of blood in each mouse was calculated. The in vivo activity of the compounds against the bacteria was calculated as the difference of the log10 CFU/mL values between the treated mice and the control mice at 4 h (Δ log=log10 (treated)CFU/mL−log10 (control)CFU/mL).
Any compound showing a decrease in bacterial loading (Δ log) of ≥2 at 4 h is considered to have good in vivo efficacy in this initial screening model.

Compound | MIC (Acinetobacter baumannii) | Minimum inhibitory concentration, Ab A ATCC 17978 (Acinetobacter baumannii) | Minimum inhibitory concentration, Ab ATCC 19606 (Acinetobacter baumannii) | Minimum inhibitory concentration, Ab FADDI-AB034 (Acinetobacter baumannii) | Minimum inhibitory concentration, Ec FADDI-EC001 (Enterobacter cloacae) | Minimum inhibitory concentration, Ec FADDI-EC003 (Enterobacter cloacae) | Minimum inhibitory concentration, Ec FADDI-EC006 (Enterobacter cloacae) | MIC (Klebsiella pneumoniae) | MIC (Pseudomonas aeruginosa) | Minimum inhibitory concentration, Pa ATCC 27853 (Pseudomonas aeruginosa) | Minimum inhibitory concentration, Pa FADDI-PA022 (Pseudomonas aeruginosa) | Minimum inhibitory concentration, Pa FADDI-PA025 (Pseudomonas aeruginosa) | Δ log (Treated-Control at 4 h) (P. aeruginosa ATCC 27853)
CC(C)C[C@H]1NC(=O)[C@H](CCN)NC(=O)[C@@H](NC(=O)[C@H](CN)NC(=O)[C@@H](NC(=O)[C@H](CCN)NC(=O)Cc2ccc(Cl)cc2Cl)[C@@H](C)O)CCNC(=O)[C@H]([C@@H](C)O)NC(=O)[C@H](CCN)NC(=O)[C@H](CCN)NC(=O)[C@H]([C@@H](C)O)NC1=O [Compound 62] (X13-[Dab]T[Dap][Dab][Dab][dL]T[Dab][Dab]T; lactam 4-C) | 2 µg/mL (≈ 1.68 µM) | 1 µg/mL (≈ 0.84 µM) | 2 µg/mL (≈ 1.68 µM) | 1 µg/mL (≈ 0.84 µM) | <0.125 µg/mL | <0.125 µg/mL | 0.25 µg/mL (≈ 0.21 µM) | 0.25 µg/mL (≈ 0.21 µM) | 0.5 µg/mL (≈ 0.42 µM) | 0.5 µg/mL (≈ 0.42 µM) | 1 µg/mL (≈ 0.84 µM) | 1 µg/mL (≈ 0.84 µM) | −2.69 log10 CFU/mL
CC[C@@H]1NC(=O)[C@@H](CC(C)C)NC(=O)[C@H](CCN)NC(=O)[C@@H](NC(=O)[C@H](CN)NC(=O)[C@@H](NC(=O)[C@H](CCN)NC(=O)Cc2ccc(Cl)cc2Cl)[C@@H](C)O)CCNC(=O)[C@H]([C@@H](C)O)NC(=O)[C@H](CCN)NC(=O)[C@H](CCN)NC1=O [Compound 70] (X13-[Dab]T[Dap][Dab][Dab][dL][Abu][Dab][Dab]T; lactam 4-C) | 0.5 µg/mL (≈ 0.426 µM) | 0.5 µg/mL (≈ 0.426 µM) | 0.5 µg/mL (≈ 0.426 µM) | 1 µg/mL (≈ 0.852 µM) | 0.5 µg/mL (≈ 0.426 µM) | 0.25 µg/mL (≈ 0.213 µM) | 0.5 µg/mL (≈ 0.426 µM) | 0.25 µg/mL (≈ 0.213 µM) | 1 µg/mL (≈ 0.852 µM) | 1 µg/mL (≈ 0.852 µM) | 1 µg/mL (≈ 0.852 µM) | 2 µg/mL (≈ 1.7 µM) | −3.11 log10 CFU/mL
CC[C@@H]1NC(=O)[C@@H](CC(C)C)NC(=O)[C@H](CCN)NC(=O)[C@@H](NC(=O)[C@H](CN)NC(=O)[C@@H](NC(=O)[C@H](CCN)NC(=O)Cc2ccc(Cl)cc2)[C@@H](C)O)CCNC(=O)[C@H]([C@@H](C)O)NC(=O)[C@H](CCN)NC(=O)[C@H](CCN)NC1=O [Compound 77] ({Phenylacetyl(4-Cl)}-[Dab]T[Dap][Dab][Dab][dL][Abu][Dab][Dab]T; lactam 4-C) | 4 µg/mL (≈ 3.51 µM) | 0.5 µg/mL (≈ 0.439 µM) | 4 µg/mL (≈ 3.51 µM) | 1 µg/mL (≈ 0.877 µM) | 0.5 µg/mL (≈ 0.439 µM) | <0.125 µg/mL | 0.25 µg/mL (≈ 0.219 µM) | <0.125 µg/mL | 0.25 µg/mL (≈ 0.219 µM) | 0.25 µg/mL (≈ 0.219 µM) | 0.5 µg/mL (≈ 0.439 µM) | 4 µg/mL (≈ 3.51 µM) | −2.28 log10 CFU/mL
CC[C@@H]1NC(=O)[C@@H](CC(C)C)NC(=O)[C@H](CCN)NC(=O)[C@@H](NC(=O)[C@H](CN)NC(=O)[C@@H](NC(=O)[C@H](CCN)NC(=O)c2ccc(C)c(C)c2)[C@@H](C)O)CCNC(=O)[C@H]([C@@H](C)O)NC(=O)[C@H](CCN)NC(=O)[C@H](CCN)NC1=O [Compound 83] (X14-[Dab]T[Dap][Dab][Dab][dL][Abu][Dab][Dab]T; lactam 4-C) | 2 µg/mL (≈ 1.79 µM) | 1 µg/mL (≈ 0.893 µM) | 2 µg/mL (≈ 1.79 µM) | 0.5 µg/mL (≈ 0.447 µM) | 0.25 µg/mL (≈ 0.223 µM) | 0.25 µg/mL (≈ 0.223 µM) | 0.25 µg/mL (≈ 0.223 µM) | 0.25 µg/mL (≈ 0.223 µM) | 1 µg/mL (≈ 0.893 µM) | 1 µg/mL (≈ 0.893 µM) | 1 µg/mL (≈ 0.893 µM) | 2 µg/mL (≈ 1.79 µM) | −3.63 log10 CFU/mL
CC[C@@H]1NC(=O)[C@@H](CC(C)C)NC(=O)[C@H](CCN)NC(=O)[C@@H](NC(=O)[C@H](CN)NC(=O)[C@@H](NC(=O)[C@H](CCN)NC(=O)c2ccc(C(C)C)cc2)[C@@H](C)O)CCNC(=O)[C@H]([C@@H](C)O)NC(=O)[C@H](CCN)NC(=O)[C@H](CCN)NC1=O [Compound 99] (X22-[Dab]T[Dap][Dab][Dab][dL][Abu][Dab][Dab]T; lactam 4-C) | 1 µg/mL (≈ 0.882 µM) | 0.25 µg/mL (≈ 0.221 µM) | 1 µg/mL (≈ 0.882 µM) | 0.25 µg/mL (≈ 0.221 µM) | 0.25 µg/mL (≈ 0.221 µM) | 0.25 µg/mL (≈ 0.221 µM) | 0.5 µg/mL (≈ 0.441 µM) | 0.5 µg/mL (≈ 0.441 µM) | 1 µg/mL (≈ 0.882 µM) | 1 µg/mL (≈ 0.882 µM) | 0.5 µg/mL (≈ 0.441 µM) | 2 µg/mL (≈ 1.76 µM) | −3.21 log10 CFU/mL
CCc1ccc(C(=O)N[C@@H](CCN)C(=O)N[C@H](C(=O)N[C@@H](CN)C(=O)N[C@H]2CCNC(=O)[C@H]([C@@H](C)O)NC(=O)[C@H](CCN)NC(=O)[C@H](CCN)NC(=O)[C@H](CC)NC(=O)[C@@H](CC(C)C)NC(=O)[C@H](CCN)NC2=O)[C@@H](C)O)cc1 [Compound 100] ({Benzoyl(4-Et)}-[Dab]T[Dap][Dab][Dab][dL][Abu][Dab][Dab]T; lactam 4-C) | 2 µg/mL (≈ 1.79 µM) | 1 µg/mL (≈ 0.893 µM) | 2 µg/mL (≈ 1.79 µM) | 1 µg/mL (≈ 0.893 µM) | 0.25 µg/mL (≈ 0.223 µM) | 0.5 µg/mL (≈ 0.447 µM) | 0.5 µg/mL (≈ 0.447 µM) | 0.5 µg/mL (≈ 0.447 µM) | 0.5 µg/mL (≈ 0.447 µM) | 0.5 µg/mL (≈ 0.447 µM) | 0.5 µg/mL (≈ 0.447 µM) | 2 µg/mL (≈ 1.79 µM) | −3.83 (−3.83) log10 CFU/mL
